Measured values as given in patent publication US20080194483A1, “GLP-1 (9-36) methods and compositions” (priority 2003, published 2008).
Where no end group is shown, it is not given here.

Experiments:
hepatocytes = assay type: cell-based
Experimental: An experiment similar to that described in Example 1 was performed, using hepatocytes rather than endothelial cells.

[1] = test system: endothelial nitric oxide synthase (eNOS); assay: eNOS activity ([3H]L-arginine to [3H]L-citrulline) in cultured vascular endothelial cells; assay type: cell-based, bovine; settings: BAECs
Experimental: Cell-culture conditions. For measurement of endothelial nitric oxide activity (eNOS), bovine aortic endothelial cells (BAECs, passage 4-10) were plated in 24 well plates at 200,000 cells /well in Eagle's MEM containing 10% FBS, essential and nonessential amino acids, and antibiotics. Cells were incubated with either 5 mM glucose, 30 mM glucose, 30 mM glucose plus 10 nM GLP-1 (7-36), 30 mM glucose plus 10 nM GLP-1 (7-36) plus 10 μM pyrrolidide (a DPP IV inhibitor) (not shown in FIG. 2), 30 mM glucose plus 10 nM GLP-1 (7-36) plus 10 μM pyrrolidide and 100 μM phosphoramidon (a neutral endopeptidase 24.11 inhibitor), 30 mM glucose+GLP-1 (9-36), and 30 mM glucose plus GLP-1 (9-36) plus 10 nM exendin 9-39, a blocker of the GLP-1 (7-36) receptor. The pyrrolidide, phosphoramidon, and exendin 9-39 were each added to the cells four hours before the addition of the peptides. eNOS activity measurements were performed 48 hrs later. Measurement of eNOS activity. eNOS activity in cells was determined by first incubating cells in L-arginine-deficient, serum-free MEM media for 6 hours. […] The eluate was collected in glass scintillation vials for [^3H]L-citrulline quantitation by liquid scintillation spectroscopy.

[2] = test system: bovine aortic endothelial cells (BAECs); assay: Hyperglycemia-induced intracellular ROS (CM-H2DCFDA) in cultured vascular endothelial cells; assay type: cell-based
Experimental: Cell culture conditions. For reactive oxygen species (RO) measurement, bovine aortic endothelial cells (BAECs, passage 4-10) were plated in 96 well plates at 100,000 cells/well in Eagle's MEM containing 10% FBS, essential and nonessential amino acids, and antibiotics. Cells were incubated with either 5 mM glucose, 30 mM glucose, 30 mM glucose plus 10 nM GLP-1 (7-36), 30 mM glucose plus 10 nM GLP-1 (7-36), 30 mM glucose plus 10 nM GLP-1 (7-36) plus 10 μM pyrrolidide (a DPP IV inhibitor), 30 mM glucose plus 10 nM GLP-1 (7-36) plus 10 μM pyrrolidide and 100 μM phosphoramidon (a neutral endopeptidase 24.11 inhibitor), and 30 mM glucose plus GLP-1 (9-36) plus 10 nM exendin 9-39, a blocker of the GLP-1 (7-36) receptor. The pyrrolidide, phosphoramidon, and exendin 9-39 were each added to the cells four hours before the addition of the peptides. The ROS measurements were performed 24 hrs later.
Intracellular reactive oxygen species measurements. The intracellular formation of reactive oxygen species was detected using the fluorescent probe CM-H2DCFDA (Molecular Probes). Cells (1×10^5 ml^−1) were loaded with 10 μM CM-H2DCFDDA, incubated for 45 min at 37° C., and analysed in an HTS 7000 Bio Assay Fluorescent Plate Reader (Perkin Elmer) using the HTSoft program. ROS production was determined from an H2O2 standard curve (10-200 nmol ml^−1).

[3] = test system: human aortic endothelial cells (HAEC); assay: Nutrient-induced ROS (CM-H2DCFDA) in human aortic endothelial cells; assay type: cell-based
Experimental: Cell Culture conditions. Confluent HAECs (passage 1-6) were maintained in EGM2 media containing 0.4% FBS plus growth factor additives. Cells were incubated for varying times with either 5 mM glucose, 12 mM glucose, or 5 mM glucose plus 800 μM oleic acid and 1 mM albumin. In other experiments, cells were incubated with 5 mM glucose, 12 mM glucose, or 5 mM glucose plus 800 μM oleic acid and 1 mM albumin, alone, or with either 100 pM GLP-1 (7-36 NH2), GLP-1 (7-36 NH2)+ the DPPIV inhibitor H-lys(4-nito-Z)-pyrrolidide and the neutral endopeptidase inhibitor phosphoramidon, GLP-1 (9-36 NH2), GLP-1 (9-36 NH2) plus the GLP-1 receptor blocker […], and with GLP-1 (9-36 NH2) with 100× GLP-1 (7-36 NH2) and both DPPIV and NEP inhibitors. Cells were pre incubated for four hrs in cycloheximide (5 ug/ml). In experiments using clotrimazole cells were preincubated for 2.5 hrs in serum free media. Reactive oxygen species quantification. Cells were plated in 96-well cell culture plates. Intracellular reactive oxygen species were detected using the fluorescent probe CM-H2DCFDA (Molecular Probes). Cells were loaded with 10 μM CM-H2DCFDA, incubated for 45 min at 37° C., and analyzed with an HTS 7000 Bio Assay Fluorescent Plate Reader (Perkin Elmer) using the HTSoft program.

rat hepatocytes = assay: Gluconeogenesis (glucose production) in isolated rat liver cells; assay type: cell-based; settings: liver cells of non-diabetic control strain rats, 1000 pM insulin without GLP-1(9-36), 24 hours
Experimental: Liver cells were isolated from non-diabetic control strain rats and from SDF rats. Single-cell suspensions of hepatocytes were obtained from perfusions using the procedure of Berry and Friend (1969) and the perfusion mixture of […] et al. (1979). The cells were plated on tissue culture plastic for 6 hours at a density of 2×10^5 cells per well in a 24-well culture plate that was pre-coated with rat-tail collagen I. During plating, cells were cultured in RPMI 1640 medium supplemented with 10% FBS, penicillin/streptomycin, 10 μg/ml insulin and 10 μM dexamethasone. After allowing for adherence, the media was changed to RPMI with 5 mM glucose, 0.4% FCS, and no insulin or dexamethasone. The cells were allowed to equilibrate overnight in this low-glucose media. The following morning this media was refreshed, insulin alone, or insulin and GLP-1(9-36) were added and treatment lasted another 24 hours. After stimulation, glucose production was measured by incubating the cells for 6 hours in glucose-free RPMI containing 5 mM each of alanine, valine, glycine, pyruvate and lactate. Glucose was subsequently measured with a Trinder assay (Sigma). Averages were obtained of 4 independent measurements.

`CC[C@H](C)[C@H](NC(=O)[C@H](Cc1ccccc1)NC(=O)[C@H](CCC(=O)O)NC(=O)[C@H](CCCCN)NC(=O)[C@H](C)NC(=O)[C@H](C)NC(=O)[C@H](CCC(N)=O)NC(=O)CNC(=O)[C@H](CCC(=O)O)NC(=O)[C@H](CC(C)C)NC(=O)[C@H](Cc1ccc(O)cc1)NC(=O)[C@H](CO)NC(=O)[C@H](CO)NC(=O)[C@@H](NC(=O)[C@H](CC(=O)O)NC(=O)[C@H](CO)NC(=O)[C@@H](NC(=O)[C@H](Cc1ccccc1)NC(=O)[C@@H](NC(=O)CNC(=O)[C@@H](N)CCC(=O)O)[C@@H](C)O)[C@@H](C)O)C(C)C)C(=O)N[C@@H](C)C(=O)N[C@@H](Cc1c[nH]c2ccccc12)C(=O)N[C@@H](CC(C)C)C(=O)N[C@H](C(=O)N[C@@H](CCCCN)C(=O)NCC(=O)N[C@@H](CCCNC(=N)N)C(N)=O)C(C)C` [GLP-1 (9-36)] was tested, and the “hyperglycemia-induced ROS formation in hepatocytes” value (hepatocytes) was “inhibited”.
With “GLP-1 (7-36) (HAEGTFTSDVSSYLEGQAAKEFIAWLVKGR-NH2; UniProt P01275 98-127, looked up, fragment)” the “hyperglycemia-induced decrease in eNOS activity when GLP-1 (7-36) degradation is blocked” value ([1]; 30 mM glucose, 10 nM peptide plus 10 μM pyrrolidide and 100 μM phosphoramidon (FIG. 2, bar 4)) was “no effect”, the “hyperglycemia-induced ROS production when GLP-1 degradation is blocked” value ([2]; 30 mM glucose, 10 nM peptide plus 10 μM pyrrolidide (DPP IV inhibitor) with or without 100 μM phosphoramidon (FIG. 1, bars 4 and 5)) was “no effect” and the “hyperglycemia-induced ROS production” value ([2]; 30 mM glucose, peptide alone, ROS measured 24 hrs later (FIG. 1)) was “completely prevents”. For the same molecule, the “high glucose-induced ROS in the presence of DPP-4 and neutral endopeptidase 24.11 inhibitors” value ([3]; 12 mM glucose, 2 hrs, with protease inhibitors) was “no effect” and the “effect of 100-fold excess bioactive GLP-1 on ability of GLP-1 [9-36amide] to prevent nutrient-induced ROS” value ([3]; GLP-1 (9-36 NH2) with 100× GLP-1 (7-36 NH2) and both DPPIV and NEP inhibitors) was “did not affect”.
In the case of exendin 9-39 [e9-39], the “effect of GLP-1 receptor blockade on GLP-1 (9-36) protection of eNOS activity” value ([1]; 30 mM glucose plus GLP-1 (9-36) plus 10 nM exendin 9-39 (FIG. 2, bar 6)) is reported as “no effect”, the “effect of GLP-1 receptor blockade on inhibition of hyperglycemia-induced ROS by GLP-1 (9-36)” value ([2]; 30 mM glucose plus GLP-1 (9-36) plus 10 nM exendin 9-39) is reported as “no effect” and the “effect of GLP-1R antagonist on ability of GLP-1 degradation products to prevent glucose-induced ROS” value ([3]; 12 mM glucose, GLP-1 (9-36 NH2) plus receptor blocker) is reported as “no effect”.
With insulin the “gluconeogenesis, % of control levels” value (rat hepatocytes) was 46 % of control levels.
